# From PubChem BioAssay AID1745844 (Carcinogenic Potency Database (CPDB), 2022)
# The source made the active and inactive calls. The rule behind the calls is not given here.
# Tested on: rodent lifetime carcinogenesis bioassay, tumor incidence TD50
# Assay: chronic cancer bioassays in animals – CPDB, compiled studies (AID 1745844)
compound,measurement,setting,value
NN,TD50,"hamster, strain Syrian Golden, males, inhaled, site: colon, lesion: adenocarcinoma, dosed 52 weeks, study length 104 weeks",14 mg/kg/day
same,TD50,"hamster, strain Syrian Golden, males, inhaled, site: colon, lesion: leiomyoma, dosed 52 weeks, study length 104 weeks",70.5 mg/kg/day
same,TD50,"hamster, strain Syrian Golden, males, inhaled, site: colon, lesion: papilloma, dosed 52 weeks, study length 104 weeks",70.5 mg/kg/day
same,TD50,"hamster, strain Syrian Golden, males, inhaled, site: nasal cavity, lesion: adenomatous polyp, dosed 52 weeks, study length 104 weeks",4.16 mg/kg/day
same,TD50,"hamster, strain Syrian Golden, males, inhaled, site: stomach, lesion: basal-cell carcinoma, dosed 52 weeks, study length 104 weeks",37.6 mg/kg/day
same,TD50,"hamster, strain Syrian Golden, males, inhaled, site: thyroid gland, lesion: parafollicular-cell adenoma, dosed 52 weeks, study length 104 weeks",17.5 mg/kg/day
same,TD50,"mouse, strain Bor:NMRI, SPF-bred NMRI, females, in drinking water, site: any site (literature study), lesion: benign tumor, dosed 104 weeks, study length 104 weeks",58.5 mg/kg/day (inactive)
same,carcinogen call,"mouse, strain Bor:NMRI, SPF-bred NMRI, females, in drinking water, site: any site (literature study), lesion: malignant tumor, dosed 104 weeks, study length 104 weeks",negative (inactive)
same,carcinogen call,"mouse, strain Bor:NMRI, SPF-bred NMRI, males, in drinking water, site: any site (literature study), lesion: benign tumor, dosed 104 weeks, study length 104 weeks",negative (inactive)
same,carcinogen call,"mouse, strain Bor:NMRI, SPF-bred NMRI, males, in drinking water, site: any site (literature study), lesion: malignant tumor, dosed 104 weeks, study length 104 weeks",negative (inactive)
same,TD50,"mouse, strain C57BL/6, females, inhaled, site: lung, lesion: adenoma, dosed 52 weeks, study length 117 weeks",7.78 mg/kg/day
same,TD50,"mouse, strain Swiss, females, by gavage, site: lung, lesion: one or several types, types not named, dosed 40 weeks, study length 55 weeks",5.67 mg/kg/day
same,TD50,"mouse, strain Swiss, females, in drinking water, site: lung, lesion: adenocarcinoma, dosed 113 weeks, study length 113 weeks",9 mg/kg/day
same,TD50,"mouse, strain Swiss, females, in drinking water, site: lung, lesion: adenoma, dosed 113 weeks, study length 113 weeks",2.81 mg/kg/day
same,TD50,"mouse, strain Swiss, females, in drinking water, site: lung, lesion: several types, types named in the paper, dosed 113 weeks, study length 113 weeks",2.54 mg/kg/day
same,TD50,"mouse, strain Swiss, males, in drinking water, site: all sites, lesion: malignant lymphoma, dosed 113 weeks, study length 113 weeks",9.52 mg/kg/day
same,TD50,"mouse, strain Swiss, males, in drinking water, site: liver, lesion: several types, types named in the paper, dosed 113 weeks, study length 113 weeks",29.8 mg/kg/day
same,TD50,"mouse, strain Swiss, males, in drinking water, site: lung, lesion: adenocarcinoma, dosed 113 weeks, study length 113 weeks",6.19 mg/kg/day
same,TD50,"mouse, strain Swiss, males, in drinking water, site: lung, lesion: adenoma, dosed 113 weeks, study length 113 weeks",2.77 mg/kg/day
same,TD50,"mouse, strain Swiss, males, in drinking water, site: lung, lesion: several types, types named in the paper, dosed 113 weeks, study length 113 weeks",2.2 mg/kg/day
same,TD50,"rat, strain Fischer 344, females, inhaled, site: lung, lesion: bronchiolar adenoma, dosed 52 weeks, study length 130 weeks",26.4 mg/kg/day
same,TD50,"rat, strain Fischer 344, females, inhaled, site: nasal cavity, lesion: adenocarcinoma, dosed 52 weeks, study length 130 weeks",9.2 mg/kg/day
same,TD50,"rat, strain Fischer 344, females, inhaled, site: nasal cavity, lesion: adenomatous polyp, dosed 52 weeks, study length 130 weeks",0.758 mg/kg/day
same,TD50,"rat, strain Fischer 344, females, inhaled, site: nasal cavity, lesion: squamous-cell carcinoma, dosed 52 weeks, study length 130 weeks",13.1 mg/kg/day
same,TD50,"rat, strain Fischer 344, females, inhaled, site: nasal cavity, lesion: squamous-cell papilloma, dosed 52 weeks, study length 130 weeks",8.72 mg/kg/day
same,TD50,"rat, strain Fischer 344, females, inhaled, site: nasal cavity, lesion: villous polyp, dosed 52 weeks, study length 130 weeks",6.56 mg/kg/day
same,TD50,"rat, strain Fischer 344, males, inhaled, site: lung, lesion: bronchiolar adenoma, dosed 52 weeks, study length 130 weeks",6.1 mg/kg/day
same,carcinogen call,"rat, strain Fischer 344, males, inhaled, site: nasal cavity, lesion: adenocarcinoma, dosed 52 weeks, study length 130 weeks",positive
same,TD50,"rat, strain Fischer 344, males, inhaled, site: nasal cavity, lesion: adenomatous polyp, dosed 52 weeks, study length 130 weeks",0.194 mg/kg/day
same,TD50,"rat, strain Fischer 344, males, inhaled, site: nasal cavity, lesion: squamous-cell carcinoma, dosed 52 weeks, study length 130 weeks",6.12 mg/kg/day
same,TD50,"rat, strain Fischer 344, males, inhaled, site: nasal cavity, lesion: squamous-cell papilloma, dosed 52 weeks, study length 130 weeks",6.1 mg/kg/day
same,TD50,"rat, strain Fischer 344, males, inhaled, site: nasal cavity, lesion: villous polyp, dosed 52 weeks, study length 130 weeks",1.36 mg/kg/day
same,TD50,"rat, strain Fischer 344, males, inhaled, site: thyroid gland, lesion: carcinoma, dosed 52 weeks, study length 130 weeks",1.6 mg/kg/day
same,TD50,"rat, strain Wistar, females, in drinking water, site: liver, lesion: hepatocellular carcinoma, dosed 157 weeks, study length 157 weeks",129 mg/kg/day
same,TD50,"rat, strain Wistar, females, in drinking water, site: liver, lesion: several types, types named in the paper, dosed 157 weeks, study length 157 weeks",41.6 mg/kg/day
same,TD50,"rat, strain Wistar, females, in drinking water, site: mammary gland, lesion: malignant tumor, dosed 157 weeks, study length 157 weeks",1.13 mg/kg/day
same,TD50,"rat, strain Wistar, males, in drinking water, site: any site (literature study), lesion: several types, types named in the paper, dosed 157 weeks, study length 157 weeks",9.64 mg/kg/day
same,TD50,"rat, strain Wistar, males, in drinking water, site: liver, lesion: several types, types named in the paper, dosed 157 weeks, study length 157 weeks",43.7 mg/kg/day
